Data: the NIST ThermoML archive (doi:10.1016/j.jct.2017.08.024)
± gives the expanded uncertainty stated by the source.

Legend:
[1] = wn = mass fraction of the nth substance listed; conditions: for surface tension liquid-gas: wilhelmy plate; for viscosity: 101 kPa, Liquid, Concentric cylinders viscometry
[2] = for surface tension liquid-gas: wilhelmy plate; for viscosity: 101.33 kPa, Liquid, Concentric cylinders viscometry

NCCO [2-aminoethan-1-ol] + O
[1]
Conditions | surface tension liquid-gas, w1 = 0.2 [mN/m] | surface tension liquid-gas, w1 = 0.3 [mN/m] | surface tension liquid-gas, w1 = 0.4 [mN/m] | surface tension liquid-gas, w1 = 1 [mN/m] | viscosity, w1 = 0.2 [mPa·s] | viscosity, w1 = 0.3 [mPa·s] | viscosity, w1 = 0.4 [mPa·s] | viscosity, w1 = 1 [mPa·s]
303.2 K | 62.1 ± 0.6 | 59.7 ± 0.6 | 57.8 ± 0.6 | 47.7 ± 0.6 | 1.51 ± 0.12 | 2.11 ± 0.13 | 3.12 ± 0.13 | 14.47 ± 0.45
313.2 K | 60.4 ± 0.6 | 58.4 ± 0.6 | 56.3 ± 0.6 | 45.9 ± 0.6 | 1.18 ± 0.12 | 1.63 ± 0.12 | 2.29 ± 0.13 | 9.87 ± 0.15
323.2 K | 58.9 ± 0.6 | 56.4 ± 0.6 | 54.6 ± 0.6 | 44.2 ± 0.6 | 0.97 ± 0.12 | 1.31 ± 0.12 | 1.79 ± 0.12 | 6.79 ± 0.14

NCCO [2-aminoethan-1-ol]
[2]
Conditions | surface tension liquid-gas [mN/m] | viscosity [mPa·s]
303.2 K | 47.7 ± 0.6 | 14.47 ± 0.45
313.2 K | 45.9 ± 0.6 | 9.87 ± 0.15
323.2 K | 44.2 ± 0.6 | 6.79 ± 0.14

O [water] + OCCNCCO
[1], w2 = 0
Conditions | surface tension liquid-gas [mN/m] | viscosity [mPa·s]
303.2 K | 71.1 ± 0.6 | 0.8 ± 0.12
313.2 K | 69.4 ± 0.6 | 0.65 ± 0.12
323.2 K | 67.7 ± 0.6 | 0.55 ± 0.12

CO [methanol]
[2]
Conditions | surface tension liquid-gas [mN/m] | viscosity [mPa·s]
303.2 K | 21.7 ± 0.6 | 0.51 ± 0.12
313.2 K | 20.9 ± 0.6 | 0.44 ± 0.12
323.2 K | 20 ± 0.6 | 0.39 ± 0.12

OCCNCCO [diethanolamine] + O
[1]
Conditions | surface tension liquid-gas, w1 = 0.2 [mN/m] | surface tension liquid-gas, w1 = 0.3 [mN/m] | surface tension liquid-gas, w1 = 0.4 [mN/m] | surface tension liquid-gas, w1 = 1 [mN/m] | viscosity, w1 = 0.2 [mPa·s] | viscosity, w1 = 0.3 [mPa·s] | viscosity, w1 = 0.4 [mPa·s] | viscosity, w1 = 1 [mPa·s]
303.2 K | 63.3 ± 0.6 | 60.5 ± 0.6 | 58.3 ± 0.6 | 46 ± 0.6 | 1.64 ± 0.12 | 2.57 ± 0.13 | 4.27 ± 0.14 | 381.21 ± 20
313.2 K | 62.1 ± 0.6 | 58.8 ± 0.6 | 56.6 ± 0.6 | 44.1 ± 0.6 | 1.29 ± 0.12 | 1.98 ± 0.13 | 3.01 ± 0.13 | 188.64 ± 6.6
323.2 K | 59.9 ± 0.6 | 57.4 ± 0.6 | 54.7 ± 0.6 | 42.8 ± 0.6 | 1.03 ± 0.12 | 1.42 ± 0.12 | 2.27 ± 0.13 | 105.98 ± 5.5

OCCNCCO [diethanolamine]
[2]
Conditions | surface tension liquid-gas [mN/m] | viscosity [mPa·s]
303.2 K | 46 ± 0.6 | 381.21 ± 20
313.2 K | 44.1 ± 0.6 | 188.64 ± 6.6
323.2 K | 42.8 ± 0.6 | 105.98 ± 5.5

O [water]
[2]
Conditions | surface tension liquid-gas [mN/m] | viscosity [mPa·s]
303.2 K | 71.1 ± 0.6 | 0.8 ± 0.12
313.2 K | 69.4 ± 0.6 | 0.65 ± 0.12
323.2 K | 67.7 ± 0.6 | 0.55 ± 0.12

O [water] + NCCO
[1], w2 = 0
Conditions | surface tension liquid-gas [mN/m] | viscosity [mPa·s]
303.2 K | 71.1 ± 0.6 | 0.8 ± 0.12
313.2 K | 69.4 ± 0.6 | 0.65 ± 0.12
323.2 K | 67.7 ± 0.6 | 0.55 ± 0.12
